# Assay results published in article PMC5218480 (PLoS ONE, 2017).
# Test system: MV-4-11 cells
# Experiment: Gene expression microarray analysis (Affymetrix PrimeView) and GSEA
# Format: cell-based, human
# Design: RFU PODN (11730768_x_at) / Fold change /veh PODN (11730768_x_at) / RFU LINC00158 (11744669_a_at) / Fold change /veh LINC00158 (11744669_a_at) / RFU DUSP10 (11751237_a_at) / Fold change /veh DUSP10 (11751237_a_at) / RFU ID3 (11757404_x_at) / Fold change /veh ID3 (11757404_x_at) / RFU PLEKHG5 (11737974_s_at) / Fold change /veh PLEKHG5 (11737974_s_at) / RFU LRRC4B (11730491_at) / Fold change /veh LRRC4B (11730491_at) / RFU GIMAP4 (11747438_a_at) / Fold change /veh GIMAP4 (11747438_a_at) / RFU KRT8 (11758183_x_at) / Fold change /veh KRT8 (11758183_x_at) / RFU CNN1 (11734310_a_at) / Fold change /veh CNN1 (11734310_a_at) / RFU VPS37D (11726825_at) / Fold change /veh VPS37D (11726825_at) / RFU C10orf10 (11716522_x_at) / Fold change /veh C10orf10 (11716522_x_at) / RFU KIR2DL2 /// KIR2DL4 /// KIR2DL5A /// KIR2DL5B /// KIR2DS1 /// KIR2DS2 /// KIR2DS3 /// KIR2DS4 /// KIR3DL3 /// KIR3DL3 /// KIR3DS1 (11738374_at) / Fold change /veh KIR2DL2 /// KIR2DL4 /// KIR2DL5A /// KIR2DL5B /// KIR2DS1 /// KIR2DS2 /// KIR2DS3 /// KIR2DS4 /// KIR3DL3 /// KIR3DL3 /// KIR3DS1 (11738374_at) / RFU C1QL1 (11718748_at) / Fold change /veh C1QL1 (11718748_at) / RFU TMPRSS4 (11747572_a_at) / Fold change /veh TMPRSS4 (11747572_a_at) / RFU HAMP (11756126_x_at) / Fold change /veh HAMP (11756126_x_at) / RFU RNFT2 (11725882_a_at) / Fold change /veh RNFT2 (11725882_a_at) / RFU NR4A2 (11747474_a_at) / Fold change /veh NR4A2 (11747474_a_at) / RFU ABCC12 (11746883_a_at) / Fold change /veh ABCC12 (11746883_a_at) / RFU TMEM136 (11760407_x_at) / Fold change /veh TMEM136 (11760407_x_at) / RFU CLDN22 /// WWC2 (11732394_at) / Fold change /veh CLDN22 /// WWC2 (11732394_at) / RFU HLA-DPB1 (11760878_x_at) / Fold change /veh HLA-DPB1 (11760878_x_at) / RFU SPINT1 (11716480_a_at) / Fold change /veh SPINT1 (11716480_a_at) / RFU GAP43 (11754022_s_at) / Fold change /veh GAP43 (11754022_s_at) / RFU A4GNT (11735810_at) / Fold change /veh A4GNT (11735810_at) / RFU PRB3 (11715151_x_at) / Fold change /veh PRB3 (11715151_x_at) / RFU TUBB4B (11761932_at) / Fold change /veh TUBB4B (11761932_at) / RFU CAPN14 (11732068_a_at) / Fold change /veh CAPN14 (11732068_a_at) / RFU TMCC2 (11721928_a_at) / Fold change /veh TMCC2 (11721928_a_at) / RFU IRGQ (11745062_a_at) / Fold change /veh IRGQ (11745062_a_at) / RFU FAM174B (11720279_a_at) / Fold change /veh FAM174B (11720279_a_at) / RFU TMPRSS4 (11748680_a_at) / Fold change /veh TMPRSS4 (11748680_a_at) / RFU FAM212B (11763350_a_at) / Fold change /veh FAM212B (11763350_a_at) / RFU PLEKHG5 (11743358_a_at) / Fold change /veh PLEKHG5 (11743358_a_at) / RFU ZSCAN30 (11745921_a_at) / Fold change /veh ZSCAN30 (11745921_a_at) / RFU CMKLR1 (11741424_a_at) / Fold change /veh CMKLR1 (11741424_a_at) / RFU LOC101060620 /// MAPK8IP1 (11723275_at) / Fold change /veh LOC101060620 /// MAPK8IP1 (11723275_at) / RFU SPTSSB (11747773_x_at) / Fold change /veh SPTSSB (11747773_x_at) / RFU PRSS12 (11739890_at) / Fold change /veh PRSS12 (11739890_at) / RFU BIN1 (11741810_x_at) / Fold change /veh BIN1 (11741810_x_at) / RFU WNT11 (11732464_a_at) / Fold change /veh WNT11 (11732464_a_at) / RFU C10orf10 (11716521_a_at) / Fold change /veh C10orf10 (11716521_a_at) / RFU C5orf56 (11738089_at) / Fold change /veh C5orf56 (11738089_at) / RFU CYB561 (11721691_x_at) / Fold change /veh CYB561 (11721691_x_at) / RFU ANKRD19P (11752326_a_at) / Fold change /veh ANKRD19P (11752326_a_at) / RFU OR2T12 /// OR2T33 /// OR2T8 (11738714_s_at) / Fold change /veh OR2T12 /// OR2T33 /// OR2T8 (11738714_s_at) / RFU VCAN (11748164_a_at) / Fold change /veh VCAN (11748164_a_at) / RFU JSRP1 (11732532_at) / Fold change /veh JSRP1 (11732532_at) / RFU KRTAP10-11 (11738290_x_at) / Fold change /veh KRTAP10-11 (11738290_x_at) / RFU MYO3A (11730013_a_at) / Fold change /veh MYO3A (11730013_a_at) / RFU EBF3 (11725865_a_at) / Fold change /veh EBF3 (11725865_a_at) / RFU CAMK2N1 (11719241_x_at) / Fold change /veh CAMK2N1 (11719241_x_at) / RFU C5orf56 (11738088_a_at) / Fold change /veh C5orf56 (11738088_a_at) / RFU OLFML3 (11715873_a_at) / Fold change /veh OLFML3 (11715873_a_at) / RFU LOC100653217 /// NTM (11731650_a_at) / Fold change /veh LOC100653217 /// NTM (11731650_a_at) / RFU MAPK11 (11762145_a_at) / Fold change /veh MAPK11 (11762145_a_at) / RFU FIZ1 (11724087_x_at) / Fold change /veh FIZ1 (11724087_x_at) / RFU OASL (11726364_x_at) / Fold change /veh OASL (11726364_x_at) / RFU SOX15 (11748057_x_at) / Fold change /veh SOX15 (11748057_x_at) / RFU CD79A (11719716_a_at) / Fold change /veh CD79A (11719716_a_at) / RFU HIST1H1D (11736915_at) / Fold change /veh HIST1H1D (11736915_at) / RFU CASKIN2 (11723855_a_at) / Fold change /veh CASKIN2 (11723855_a_at) / RFU LOC730098 (11760151_x_at) / Fold change /veh LOC730098 (11760151_x_at) / RFU OR4N2 (11742367_at) / Fold change /veh OR4N2 (11742367_at) / RFU PRRT2 (11749266_a_at) / Fold change /veh PRRT2 (11749266_a_at) / RFU SNX32 (11753110_a_at) / Fold change /veh SNX32 (11753110_a_at) / RFU CDHR5 (11726645_a_at) / Fold change /veh CDHR5 (11726645_a_at) / RFU RCAN1 (11760418_a_at) / Fold change /veh RCAN1 (11760418_a_at) / RFU FAM167A (11723789_a_at) / Fold change /veh FAM167A (11723789_a_at) / RFU FAM26E (11764081_at) / Fold change /veh FAM26E (11764081_at) / RFU ISYNA1 (11749810_s_at) / Fold change /veh ISYNA1 (11749810_s_at) / RFU ACY1 (11761880_at) / Fold change /veh ACY1 (11761880_at) / RFU 11764098_at / Fold change /veh 11764098_at / RFU SAMD14 (11745864_x_at) / Fold change /veh SAMD14 (11745864_x_at) / RFU NPB (11741838_a_at) / Fold change /veh NPB (11741838_a_at) / RFU TMPRSS6 (11731388_a_at) / Fold change /veh TMPRSS6 (11731388_a_at) / RFU KRTAP10-2 (11738614_at) / Fold change /veh KRTAP10-2 (11738614_at) / RFU ARHGAP8 /// PRR5-ARHGAP8 (11727945_x_at) / Fold change /veh ARHGAP8 /// PRR5-ARHGAP8 (11727945_x_at) / RFU KRTAP5-7 /// NADSYN1 (11734609_at) / Fold change /veh KRTAP5-7 /// NADSYN1 (11734609_at) / RFU RASL12 (11751679_a_at) / Fold change /veh RASL12 (11751679_a_at) / RFU CDKN2B (11736163_a_at) / Fold change /veh CDKN2B (11736163_a_at) / RFU PRF1 (11729649_at) / Fold change /veh PRF1 (11729649_at) / RFU, ZNF638 /// ZNF638-IT1 / Fold change vs veh, ZNF638 /// ZNF638-IT1 / RFU, PANK3 / Fold change vs veh, PANK3 / RFU, SH3YL1 / Fold change vs veh, SH3YL1 / RFU, ZEB2 / Fold change vs veh, ZEB2 / RFU, NRIP1 / Fold change vs veh, NRIP1 / RFU, PTTG1IP / Fold change vs veh, PTTG1IP / RFU, CAPN2 / Fold change vs veh, CAPN2 / RFU, MED14 / Fold change vs veh, MED14 / RFU, SNORA58 / Fold change vs veh, SNORA58 / RFU, C1orf63 / Fold change vs veh, C1orf63 / RFU, LRRFIP1 / Fold change vs veh, LRRFIP1 / RFU, NDUFAF7 / Fold change vs veh, NDUFAF7 / RFU, SLC12A2 / Fold change vs veh, SLC12A2 / RFU, IBTK / Fold change vs veh, IBTK / RFU, ESF1 / Fold change vs veh, ESF1 / Fold change vs veh, TMEM50B / RFU, TAOK1 / Fold change vs veh, TAOK1 / RFU, ACBD3 / Fold change vs veh, ACBD3 / RFU, TMA16 / Fold change vs veh, TMA16 / RFU, RWDD3 / Fold change vs veh, RWDD3 / RFU, BCAT1 / Fold change vs veh, BCAT1 / RFU, EDEM3 / Fold change vs veh, EDEM3 / RFU, TMEM33 / Fold change vs veh, TMEM33 / RFU, WDR75 / Fold change vs veh, WDR75 / RFU, AHCTF1 / Fold change vs veh, AHCTF1 / RFU, TFRC / Fold change vs veh, TFRC / RFU, ZDHHC17 / Fold change vs veh, ZDHHC17 / RFU, NOM1 / Fold change vs veh, NOM1 / RFU, ARL8B / Fold change vs veh, ARL8B / RFU, ZBTB11 / Fold change vs veh, ZBTB11 / RFU, TAMM41 / Fold change vs veh, TAMM41 / RFU, KIAA1704 /// LOC100996395 / Fold change vs veh, KIAA1704 /// LOC100996395 / RFU, ING1 / Fold change vs veh, ING1 / RFU, TRMT61B / Fold change vs veh, TRMT61B / RFU, FUBP3 / Fold change vs veh, FUBP3 / RFU, TP53 / Fold change vs veh, TP53 / RFU, TNKS2 / Fold change vs veh, TNKS2 / RFU, ZFP14 / Fold change vs veh, ZFP14 / RFU, ACTR2 / Fold change vs veh, ACTR2 / RFU, PPP3R1 / Fold change vs veh, PPP3R1 / RFU, PIK3R1 / Fold change vs veh, PIK3R1 / RFU, HNRNPA1 / Fold change vs veh, HNRNPA1 / RFU, RNF170 / Fold change vs veh, RNF170 / RFU, ZNF28 / Fold change vs veh, ZNF28 / RFU, RNGTT / Fold change vs veh, RNGTT / RFU, OGT / Fold change vs veh, OGT / RFU, BRD1 / Fold change vs veh, BRD1 / RFU, MARS / Fold change vs veh, MARS / RFU, ZNF655 / Fold change vs veh, ZNF655 / RFU, FAHD1 / Fold change vs veh, FAHD1 / RFU, BDP1 / Fold change vs veh, BDP1 / RFU, LRRCC1 / Fold change vs veh, LRRCC1 / RFU, ARID1A / Fold change vs veh, ARID1A / RFU, ZNF146 / Fold change vs veh, ZNF146 / RFU, ZNF330 / Fold change vs veh, ZNF330 / RFU, GPN3 / Fold change vs veh, GPN3 / RFU, C9orf123 / Fold change vs veh, C9orf123 / RFU, N4BP2L2 / Fold change vs veh, N4BP2L2 / RFU, ARFIP1 / Fold change vs veh, ARFIP1 / RFU, FAM179B / Fold change vs veh, FAM179B / RFU, BCL10 / Fold change vs veh, BCL10 / RFU, UHRF1BP1L / Fold change vs veh, UHRF1BP1L / RFU, BET1 / Fold change vs veh, BET1 / RFU, CNOT2 / Fold change vs veh, CNOT2 / RFU, ZNF268 / Fold change vs veh, ZNF268 / Fold change vs veh, ZNF507 / RFU, DGCR2 / Fold change vs veh, DGCR2 / RFU, WDSUB1 / Fold change vs veh, WDSUB1 / Fold change vs veh, HSP90B1 /// MIR3652 / RFU, ADSS / Fold change vs veh, ADSS / RFU, GK / Fold change vs veh, GK / RFU, ZNF148 / Fold change vs veh, ZNF148 / RFU, TAF9 / Fold change vs veh, TAF9 / RFU, SLC1A5 / Fold change vs veh, SLC1A5 / RFU, SLMO2 / Fold change vs veh, SLMO2 / RFU, ABCC4 / Fold change vs veh, ABCC4 / RFU, LOC101060439 /// RAP1B / Fold change vs veh, LOC101060439 /// RAP1B / RFU, RFX7 / Fold change vs veh, RFX7 / RFU, GTPBP10 / Fold change vs veh, GTPBP10 / RFU, CNEP1R1 / Fold change vs veh, CNEP1R1 / RFU, BIVM-ERCC5 /// ERCC5 / Fold change vs veh, BIVM-ERCC5 /// ERCC5 / RFU, ILF3 / Fold change vs veh, ILF3 / RFU 11762660_at / Fold change /veh 11762660_at / RFU VCAN (11757783_s_at) / Fold change /veh VCAN (11757783_s_at) / RFU DDX43 (11728927_at) / Fold change /veh DDX43 (11728927_at) / RFU KRT8 (11758188_x_at) / Fold change /veh KRT8 (11758188_x_at) / RFU NKD1 (11759106_at) / Fold change /veh NKD1 (11759106_at) / RFU SRD5A1 (11742802_a_at) / Fold change /veh SRD5A1 (11742802_a_at) / RFU TPSAB1 /// TPSB2 (11721975_s_at) / Fold change /veh TPSAB1 /// TPSB2 (11721975_s_at) / RFU GSTM3 (11746129_a_at) / Fold change /veh GSTM3 (11746129_a_at) / RFU IL23R (11737362_x_at) / Fold change /veh IL23R (11737362_x_at) / RFU TMEM51 (11727254_a_at) / Fold change /veh TMEM51 (11727254_a_at) / RFU PIWIL2 (11732686_x_at) / Fold change /veh PIWIL2 (11732686_x_at) / RFU ORM1 (11744905_x_at) / Fold change /veh ORM1 (11744905_x_at) / RFU CCDC152 (11743942_at) / Fold change /veh CCDC152 (11743942_at) / RFU ECM1 (11717891_a_at) / Fold change /veh ECM1 (11717891_a_at) / RFU IL23R (11748794_a_at) / Fold change /veh IL23R (11748794_a_at) / RFU TNFAIP8L3 (11732012_x_at) / Fold change /veh TNFAIP8L3 (11732012_x_at) / RFU MBOAT4 (11741988_at) / Fold change /veh MBOAT4 (11741988_at) / RFU 11764193_at / Fold change /veh 11764193_at / RFU TMEM53 (11763286_at) / Fold change /veh TMEM53 (11763286_at) / RFU MAGEB2 (11727129_at) / Fold change /veh MAGEB2 (11727129_at) / RFU TMEM200A (11744735_a_at) / Fold change /veh TMEM200A (11744735_a_at) / RFU CCDC152 (11751479_a_at) / Fold change /veh CCDC152 (11751479_a_at) / RFU FAM211A (11726209_a_at) / Fold change /veh FAM211A (11726209_a_at) / RFU RGS16 (11746705_a_at) / Fold change /veh RGS16 (11746705_a_at) / RFU VCAN (11755009_s_at) / Fold change /veh VCAN (11755009_s_at) / RFU RHOB (11743442_s_at) / Fold change /veh RHOB (11743442_s_at) / RFU RGS16 (11720943_a_at) / Fold change /veh RGS16 (11720943_a_at) / RFU RGS16 (11720944_at) / Fold change /veh RGS16 (11720944_at) / RFU, VPS4B / Fold change vs veh, VPS4B / RFU, CREB1 / Fold change vs veh, CREB1 / RFU, DNAJC13 / Fold change vs veh, DNAJC13 / RFU, GNAQ / Fold change vs veh, GNAQ / RFU, CDK5R1 / Fold change vs veh, CDK5R1 / RFU, ZRANB3 / Fold change vs veh, ZRANB3 / RFU, CUL4A / Fold change vs veh, CUL4A / RFU, CCNY / Fold change vs veh, CCNY / RFU, UFL1 / Fold change vs veh, UFL1 / RFU, COG3 / Fold change vs veh, COG3 / RFU, DIAPH2 / Fold change vs veh, DIAPH2 / RFU, SKA2 / Fold change vs veh, SKA2 / RFU, AFF3 / Fold change vs veh, AFF3 / RFU, LMF1 / Fold change vs veh, LMF1 / RFU, IPO11 / Fold change vs veh, IPO11 / RFU, DFFB / Fold change vs veh, DFFB / RFU, FOXP1 / Fold change vs veh, FOXP1 / RFU, CARD8 / Fold change vs veh, CARD8 / RFU, STRN3 / Fold change vs veh, STRN3 / RFU, ADK / Fold change vs veh, ADK / RFU, RASSF2 / Fold change vs veh, RASSF2 / RFU, WIPF1 / Fold change vs veh, WIPF1 / RFU, LARP1B / Fold change vs veh, LARP1B / RFU, RASA1 / Fold change vs veh, RASA1 / RFU, RB1 / Fold change vs veh, RB1 / RFU, PPFIA1 / Fold change vs veh, PPFIA1 / RFU, MAT2A / Fold change vs veh, MAT2A / RFU, CCT5 / Fold change vs veh, CCT5 / RFU, WDR92 / Fold change vs veh, WDR92 / RFU, CUX1 / Fold change vs veh, CUX1 / RFU, TTC7A / Fold change vs veh, TTC7A / RFU, TMEM135 / Fold change vs veh, TMEM135 / RFU, DEPTOR / Fold change vs veh, DEPTOR / RFU, CPM / Fold change vs veh, CPM / RFU, DNAJB6 / Fold change vs veh, DNAJB6 / RFU, CACNA2D3 / Fold change vs veh, CACNA2D3 / RFU, DTX4 / Fold change vs veh, DTX4 / RFU, TFCP2 / Fold change vs veh, TFCP2 / RFU, GMCL1 /// GMCL1P1 / Fold change vs veh, GMCL1 /// GMCL1P1 / RFU, AEBP2 / Fold change vs veh, AEBP2 / RFU, SNHG1 /// SNORD22 /// SNORD25 /// SNORD26 /// SNORD27 /// SNORD28 /// SNORD29 /// SNORD31 / Fold change vs veh, SNHG1 /// SNORD22 /// SNORD25 /// SNORD26 /// SNORD27 /// SNORD28 /// SNORD29 /// SNORD31 / Fold change (Aza/veh), C12orf56 (ProbeSet 11735607_a_at) / Fold change (ACY-1035/veh), C12orf56 (ProbeSet 11735607_a_at) / Fold change (Aza/veh), FGFR1OP (ProbeSet 11751329_s_at) / Fold change (ACY-1035/veh), FGFR1OP (ProbeSet 11751329_s_at) / Fold change (Aza/veh), VPS36 (ProbeSet 11739960_a_at) / Fold change (ACY-1035/veh), VPS36 (ProbeSet 11739960_a_at) / RFU SYPL1 (11715823_x_at) / Fold change /veh SYPL1 (11715823_x_at) / RFU IGFBP7 (11715501_s_at) / Fold change /veh IGFBP7 (11715501_s_at) / RFU REEP3 (11722064_at) / Fold change /veh REEP3 (11722064_at) / RFU IGLL1 (11728026_x_at) / Fold change /veh IGLL1 (11728026_x_at): dose or concentration left out as unconfirmed
# Conditions: MV-4-11 cells, 48 hours
smiles,measurement,value
Nc1ncn([C@@H]2O[C@H](CO)[C@@H](O)[C@H]2O)c(=O)n1 [azacitidine],Fold change /veh RASL12 (11751679_a_at),0.96
